Assay results from ChEMBL document CHEMBL5729403, “Small molecule modulators of the BTB domain of Keap1” (2022).
pEC50: −log10 of the molar value.

assay: HEK293 luciferase: Purpose of the AssayThe purpose of this assay is to identify small molecule inhibitors of Keap1, preventing Keap1 binding to Nrf2, and thus activating the Nrf2 signalling pathway in HEK-293 ARE firefly luciferase transiently transfected cells. HEK-293 cells express wild-type Keap1 protein and therefore have low constitutive levels of Nrf2 protein and Nrf2-dependent transcription. […] When Keap1 is inhibited, Nrf2 signalling is activated, and there is an increase in luciferase expression and light emission.Assay WorkflowCryopreserved HEK ARE luciferase cells were rapidly thawed in a 37° C. water bath and resuspended in assay culture medium (DMEM, 10% FCS, 2 mM L-glutamine). The cell suspension was pelleted by centrifugation ([…]; 300 g) using a Heraeus benchtop centrifuge. Supernatant was removed and the pellet was gently resuspended in 5 mL culture medium per vial. Cell viability and cell number was measured using an Invitrogen Countess automated cell counter (typical viability 80%), and cells were diluted to a density of 5.0×10^5 cells/mL.Cells were then plated out into white 384-well plates (Greiner 781080) using a Multidrop Combi, 20 μL/well, to give 10,000 cells/well. As appropriate, test compounds had been added to wells prior to dispensing cells using an Echo 555 acoustic dispenser (Labcyte). Plates were left at room temperature for ˜10 min to promote even cell settling across the plate before incubation for 18 h at 37° C., 95% humidity and 5% CO2.After 18 h incubation, plates were removed from the incubator and allowed to cool to room temperature for 30 min, before 10 μL per well SteadyGlo reagent detection reagent was added (as per manufacturer's instructions, 10 min before required 10 mL room temperature buffer was added to one vial of lyophilised substrate and inverted several times to fully dissolve). Plates were then incubated in the dark for 30 min before reading on an Envision plate reader.Preparation of Compounds for ScreeningCompounds were acoustically dispensed using a Labcyte Echo, using a 10 pt dose curve with a top concentration of 100 μM. Assay wells were backfilled with DMSO to a total of 60 nL to maintain 0.3% (v/v) DMSO through the assay.Data Analysis Software and Calculation of ResultsThe Stimulator signal was defined using 30 μM tert-butyl hydroquinone (tBHQ) and the Neutral signal by DMSO vehicle control. All calculations were performed using GeneData.

Row | SMILES | pEC50
1 | CCc1cccc(C2(OC)C=C(C#N)C(=O)C(C)(C)C2)n1 (centres undefined) | < 4.52
2 | COC1(c2cccc(-c3ccccc3)n2)C=C(C#N)C(=O)C(C)(C)C1 (centres undefined) | 5.00
3 | COC1(c2cccc(C)n2)C=C(C#N)C(=O)C(C)(C)C1 (centres undefined) | 6.57
4 | COC1(c2ccc(C)cc2)C=C(C#N)C(=O)C(C)(C)C1 (centres undefined) | 6.51
